Values quoted from earlier work as cited in patent US10695378B2, “Direct reprogramming of cells to cardiac myocyte fate” (Duke University, priority 2010, dated 2020).
One block for each compound: values may come before it.

What was measured:
JAK1 = conditions: small molecule inhibitors of JAK-1
[1] = tested on: TGFβ-induced epithelial-to-mesenchymal transition
[2] = not given; remark: listed apart in the source
[3] = not given; remark: listed apart in the source

therapeutic range (currently established therapeutic range): 50 to 120 µg/mL | Serum or plasma valproic acid concentrations (during controlled therapy): 20 to 100 mg/L
SMILES: CCCC(CCC)C(=O)O [Valproic acid, 2-propylpentanoic acid]

IC50 values (in words) (JAK1): nanomolar range
SMILES: N#CC[C@H](C1CCCC1)n1cc(-c2ncnc3[nH]ccc23)cn1 [INCB018424]

SMILES: Cc1cccc(-c2nn(C(=S)Nc3ccccc3)cc2-c2ccnc3ccccc23)n1 [A83-01, 3-(6-Methyl-2-pyridinyl)-N-phenyl-4-(4-quinolinyl)-1H-pyrazole-1-carbothioamide]
phosphorylation of Smad2 (Smad2): blocks | TGFβ-induced epithelial-to-mesenchymal transition [1]: inhibits

SMILES: O=C(O)C(Cc1c[nH]c2ccccc12)N1C(=O)c2ccccc2C1=O (stereo not shown) [RG108, 2-(1,3-Dioxo-1,3-dihydro-2H-isoindol-2-yl)-3-(1H-indol-3-yl)propionic acid]
doubling time in culture (human tumor cell line): increases | human tumor cell line proliferation (human tumor cell line): inhibit

IC50 values (in words) (JAK1): nanomolar range
SMILES: CC(C)(C)c1nc2c3ccc(F)cc3c3c(=O)[nH]ccc3c2[nH]1 [JAK inhibitor 1, 2-(1,1-Dimethylethyl)-9-fluoro-3,6-dihydro-7H-benz[h]-imidaz[4,5-f]isoquinolin-7-one]
phosphorylation of STATS [2]: blocks

soluble in DMSO [3]: > 20 mg/mL
SMILES: O=C(O)C=C(CCc1ccc(Cl)cc1)c1ccccc1 [PS48, 5-(4-Chloro-phenyl)-3-phenyl-pent-2-enoic acid]
